Structures are written as SMILES.

Test [1] is described as follows: Inhibition of N-terminal 6His-tagged SARS-CoV nsp14 N7-methyltransferase activity expressed in Escherichia coli using GpppAC4 synthetic RNA and [3H]-SAM as substrate incubated for 30 mins in presence of SAM by Liquid scintillation analysis. Also noted: species or system Severe acute respiratory syndrome-related coronavirus.
Test [2] is described as follows: Inhibition of SARS-CoV-2 nsp16 (1 to 298 residues) expressed in Escherichia coli BL21(DE3)RIL cells using RNA and [3H]SAM as substrate incubated for 1 hrs by SPA-based assay. Also noted: species or system Severe acute respiratory syndrome coronavirus 2.
Test [3] deals with T1, Replicase polyprotein 1ab (Severe acute respiratory syndrome coronavirus 2, UniProt P0DTD1). Nature of the test: Inhibition of C-terminal His-tagged SARS-CoV-2 PLpro BetaCoV/Wuhan/WIV04/2019 expressed in Escherichia coli BL21(DE3) using ISG-AMC substrate incubated for 3 hrs by FRET analysis.
For test [4], the target named is T1, Replicase polyprotein 1ab. Put plainly: Inhibition of SARS-CoV-2 main protease by FRET assay.
The subject of test [5] is SARS-CoV-2. Nature of the test: Antiviral activity against SARS CoV-2 USA-WA1/2020 infected in African green monkey Vero E6 cells assessed as reduction in viral plaque formation incubated for 3 days by plaque reduction neutralization assay. It is filed as functional, organism-based. To be noted: Severe acute respiratory syndrome coronavirus 2, USA-WA1/2020, Vero C1008, 72 h.

Test [6] concerns the target T1, Replicase polyprotein 1ab. Nature of the test: Inhibition of recombinant SARS-CoV-2 PLpro expressed in Escherichia coli BL21 (DE3) using Arg-Leu-Arg-Gly-Gly-AMC as substrate preincubated for 5 mins followed by substrate addition measured after 6 mins by fluorescence based assay.
The test system of test [7] is SARS-CoV-2. Nature of the test: Antiviral activity against SARS-CoV-2 infected in African green monkey Vero E6 cells assessed as inhibition of virus growth. The class given is functional, organism-based. To be noted: Severe acute respiratory syndrome coronavirus 2, Vero C1008.
Another test addresses Furin (Homo sapiens, UniProt P09958). Put plainly: Inhibition of furin (unknown origin).
The test system of test [8] is SARS-CoV-2. Nature of the test: microbe, parasite or virus in culture. The note with it: Severe acute respiratory syndrome coronavirus 2, Vero, 24 h.
The target of test [9] is T1, Replicase polyprotein 1ab. Put plainly: Inhibition of recombinant SARS-CoV-2 Main protease by FRET analysis.

Furin, sequence (P09958 whole entry): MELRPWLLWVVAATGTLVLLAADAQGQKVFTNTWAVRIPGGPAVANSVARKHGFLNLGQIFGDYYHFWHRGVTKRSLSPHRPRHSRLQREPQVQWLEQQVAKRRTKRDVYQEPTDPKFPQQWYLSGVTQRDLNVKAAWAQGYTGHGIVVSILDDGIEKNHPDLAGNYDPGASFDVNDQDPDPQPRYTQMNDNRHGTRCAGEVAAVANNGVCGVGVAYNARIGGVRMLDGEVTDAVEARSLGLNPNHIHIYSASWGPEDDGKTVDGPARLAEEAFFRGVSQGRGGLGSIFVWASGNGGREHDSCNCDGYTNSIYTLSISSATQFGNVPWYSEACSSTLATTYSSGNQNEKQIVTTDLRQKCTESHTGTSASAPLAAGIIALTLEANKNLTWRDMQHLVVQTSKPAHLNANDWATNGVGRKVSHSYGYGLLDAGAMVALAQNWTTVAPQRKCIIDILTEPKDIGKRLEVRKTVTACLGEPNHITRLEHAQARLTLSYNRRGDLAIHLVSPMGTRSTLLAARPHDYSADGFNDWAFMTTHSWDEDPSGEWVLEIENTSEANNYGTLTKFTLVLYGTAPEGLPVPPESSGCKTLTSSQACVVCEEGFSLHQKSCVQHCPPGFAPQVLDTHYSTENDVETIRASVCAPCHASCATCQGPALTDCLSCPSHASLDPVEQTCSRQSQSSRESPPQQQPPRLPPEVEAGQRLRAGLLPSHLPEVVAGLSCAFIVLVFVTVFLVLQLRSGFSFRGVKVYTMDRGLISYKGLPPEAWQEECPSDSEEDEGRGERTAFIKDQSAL

What is called IC50 is the concentration needed to halve the response being measured. Regarding `N#Cc1cn([C@@H]2O[C@H](CSCC[C@H](N)C(=O)O)[C@@H](O)[C@H]2O)c2ncnc(N)c12`, the IC50 in test [1] is 70 nM; in test [2], 1200 nM.

Take `CCOC(=O)/C=C/[C@H](C[C@@H]1CCNC1=O)NC(=O)[C@H](Cc1ccccc1)NC(=O)[C@@H](Cc1ccc(F)cc1)NC(=O)OC(C)(C)C`: the results for the IC50 in test [3] and in [4] were 60 nM and 1800 nM, respectively.

Turning to `CCOC(=O)/C=C/[C@H](C[C@@H]1CCNC1=O)NC(=O)[C@H](Cc1ccccc1)NC(=O)[C@H](N)Cc1ccccc1`, the IC50 in [3] amounted to 60 nM.

Regarding `Nc1ncnc2c1ncn2[C@@H]1O[C@H](C[C@@H](CO)CC[C@H](N)C(=O)O)[C@@H](O)[C@H]1O`, the figures for the IC50 in [1] and in [2] were 190 nM and 3400 nM, respectively.

The term EC50 denotes the midpoint of the concentration-response curve. With `CCCCCCCCCCCCCCCc1cccc(O)c1C(=O)O` [ANACARDIC ACID], the concentration giving a half-maximal response (EC50) with SARS-CoV-2 [5] is 9000 nM.

`CC(C)[C@H](NC(=O)[C@H](CCCNC(=N)N)NC(=O)N[C@@H](Cc1ccccc1)C(=O)O)C(=O)N[C@H](C=O)CCCNC(=N)N` [ANTIPAIN]: the IC50 in test [6] was 3 nM. In the test with SARS-CoV-2 [7], the EC50 came out at 640 nM.

At Furin, `N=C(N)c1ccc(/N=N/Nc2ccc(C(=N)N)cc2)cc1` [DIMINAZENE] yielded an IC50 of 580 nM.

Consider `CCCCCC/C=C\CCCCCCCc1cccc(O)c1C(=O)O` [GINGKOLIC ACID], for which the concentration for a half-maximal effect (EC50) in the test on SARS-CoV-2 [5] turned out to be 8300 nM.

Take `N=C(N)Nc1ccc(C(=O)Oc2ccc3cc(C(=N)N)ccc3c2)cc1` [NAFAMOSTAT]: in the test on SARS-CoV-2 [8], the EC50 is 10 nM.

For the compound `O=C(OC[C@H]1O[C@@H](OC(=O)c2cc(O)c(O)c(OC(=O)c3cc(O)c(O)c(O)c3)c2)[C@H](OC(=O)c2cc(O)c(O)c(OC(=O)c3cc(O)c(O)c(O)c3)c2)[C@@H](OC(=O)c2cc(O)c(O)c(OC(=O)c3cc(O)c(O)c(O)c3)c2)[C@@H]1OC(=O)c1cc(O)c(O)c(OC(=O)c2cc(O)c(O)c(O)c2)c1)c1cc(O)c(O)c(OC(=O)c2cc(O)c(O)c(O)c2)c1` [TANNIC ACID], the 50% inhibitory concentration (IC50) in test [9] came to 13200 nM.
